Laboratory results: US4576943A, “Pyrazolo[1,5-a]pyrimidines” (American Cyanamid Company, priority 1984, dated 1986)

How the values were obtained:
Hypoxic Survival Test = type: in vivo, Royal Hart mice; conditions: for % Survivors: 10% oxygen, 5 minutes
Method: Groups of 20 Royal Hart mice (6 weeks of age) are injected intraperitoneally with 10, 50 or 100 mg/kg of test compound 30 minutes prior to placing them in a hypoxic mixture (10% oxygen in 90% […]) and measuring survival after 5 minutes.
A separate group of 20 mice is injected intraperitoneally with saline solution (0.01 cc/g of body weight) and processed as described above.
Still another group of 20 mice is injected intraperitoneally with 0.125 mg/kg of physostigmine and processed as described above.

[1] = Hypotensive activity in spontaneously hypertensive rats; type: in vivo, spontaneously hypertensive rats of the Okamoto strain; conditions: 100 mg/kg by gavage, two doses 24 hours apart, measured at 28 hours after the initial dose; one or two rats
Method: The novel compounds of the present invention are active hypotensive agents and were tested for hypotensive activity by the method of P. S. Chan and D. Poorvin, Clinical and Experimental Hypertension, 1 (6), 817-830 (1979). […] One to 3 rats are used per test compound. A rat is dosed by gavage with a test compound suspended in 2% pre-boiled starch at a concentration of 50 mg/ml, at a dose of 100 mg/kg of body weight or less, with 0.9% sodium chloride loading at a dose of 25 ml/kg of body weight. A second identical dose of the test compound, without sodium chloride loading is given 24 hours later. At 28 hours after the initial dose the mean arterial blood pressure is measured by the method of Chan and Poorvin (see above). The procedure is repeated in a second and third rat when necessary. The results of this test on representative compounds of the present invention which were obtained using one or two rats, at a dose of 100 mg/kg of body weight appear below in Table I.

[2] = test system: brain-specific receptors (tritiated benzodiazepine binding, P2-synaptosomal fraction of rat whole cortex); assay: Inhibition of the binding of 3H-benzodiazepine to brain-specific receptors of rats; design: species or system Male albino rats (Wistar strain); conditions: 3H-diazepam (1.5 nM) or 3H-flunitrazepam (1.0 nM), pH 7.4, 30 minutes in ice; test concentration not given

SMILES	Mean Arterial Blood Pressure [1]	% Inhibition of the binding of 3H-benzodiazepine [2]	other results
N#Cc1c(N2CCCCC2)nn2c(-c3cccnc3)ccnc12 [2-(1-Piperidinyl)-7-(3-pyridinyl)pyrazolo[1,5-a]pyrimidine-3-carbonitrile]	141 mm of mercury	14%	% Survivors (Hypoxic Survival Test; 100 mg/kg i.p.): 45%
CN1CCN(c2nn3c(-c4cccc(C(F)(F)F)c4)ccnc3c2C#N)CC1 [2-(4-Methyl-1-piperazinyl)-7-[3-(trifluoromethyl)phenyl]pyrazolo[1,5-a]pyrimidine-3-carbonitrile]	139 mm of mercury	–	–
N#Cc1c(N2CCSCC2)nn2c(-c3cccc(C(F)(F)F)c3)ccnc12 [2-(4-Thiomorpholinyl)-7-[3-(trifluoromethyl)phenyl]pyrazolo[1,5-a]pyrimidine-3-carbonitrile]	148 mm of mercury	–	–
N#Cc1c(N2CCN(CCO)CC2)nn2c(-c3cccnc3)ccnc12 [2-[4-(2-Hydroxyethyl)-1-piperazinyl]-7-(3-pyridinyl)pyrazolo[1,5-a]pyrimidine-3-carbonitrile]	–	25%	–
N#Cc1c(N2CCN(CCO)CC2)nn2c(-c3cccc(C(F)(F)F)c3)ccnc12 [2-[4-(2-Hydroxyethyl)-1-piperazinyl]-7-[3-(trifluoromethyl)phenyl]pyrazolo[1,5-a]pyrimidine-3-carbonitrile]	111 mm of mercury	41%	% Survivors (Hypoxic Survival Test; 10 mg/kg i.p.): 45%
N#Cc1c(N2CCN(CCCCOc3ccccc3)CC2)nn2c(-c3cccnc3)ccnc12 [2-[4-(4-Phenoxybutyl)-1-piperazinyl]-7-(3-pyridinyl)pyrazolo[1,5-a]pyrimidine-3-carbonitrile]	144 mm of mercury	33%	–
N#Cc1c(N2CCN(CCCCOc3ccccc3)CC2)nn2c(-c3cccc(C(F)(F)F)c3)ccnc12 [2-[4-(4-Phenoxybutyl)-1-piperazinyl]-7-[3-(trifluoromethyl)phenyl]pyrazolo[1,5-a]pyrimidine-3-carbonitrile]	147 mm of mercury	26%	–
N#Cc1c(N2CCN(Cc3ccccc3)CC2)nn2c(-c3cccnc3)ccnc12 [2-[4-(Phenylmethyl)-1-piperazinyl]-7-(3-pyridinyl)pyrazolo[1,5-a]pyrimidine-3-carbonitrile]	124 mm of mercury	–	% Survivors (Hypoxic Survival Test; 50 mg/kg i.p.): 40%
NC(=O)c1c(N2CCN(Cc3ccccc3)CC2)nn2c(-c3cccc(C(F)(F)F)c3)ccnc12 [2-[4-(Phenylmethyl)-1-piperazinyl]-7-[3-(trifluoromethyl)phenyl]pyrazolo[1,5-a]pyrimidine-3-carboxamide]	–	14%	–
N#Cc1c(N2CCC(Cc3ccccc3)CC2)nn2c(-c3cccc(C(F)(F)F)c3)ccnc12 [2-[4-(Phenylmethyl)-1-piperidinyl]-7-[3-(trifluoromethyl)phenyl]pyrazolo[1,5-a]pyrimidine-3-carbonitrile]	142 mm of mercury	46%	–
N#Cc1c(N2CCN(Cc3c(Cl)cccc3Cl)CC2)nn2c(-c3cccnc3)ccnc12 [2-[4-[(2,6-Dichlorophenyl)methyl]-1-piperazinyl]-7-(3-pyridinyl)pyrazolo[1,5-a]pyrimidine-3-carbonitrile]	124 mm of mercury	–	–
N#Cc1c(N2CCN(Cc3c(Cl)cccc3Cl)CC2)nn2c(-c3cccc(C(F)(F)F)c3)ccnc12 [2-[4-[(2,6-Dichlorophenyl)methyl]-1-piperazinyl]-7-[3-(trifluoromethyl)phenyl]pyrazolo[1,5-a]pyrimidine-3-carbonitrile]	–	22%	–
N#Cc1c(N2CCN(Cc3cccc(Cl)c3)CC2)nn2c(-c3cccnc3)ccnc12 [2-[4-[(3-Chlorophenyl)methyl]-1-piperazinyl]-7-(3-pyridinyl)pyrazolo[1,5-a]pyrimidine-3-carbonitrile]	137 mm of mercury	12%	–
N#Cc1c(N2CCN(Cc3cccc(Cl)c3)CC2)nn2c(-c3cccc(C(F)(F)F)c3)ccnc12 [2-[4-[(3-Chlorophenyl)methyl]-1-piperazinyl]-7-[3-(trifluoromethyl)phenyl]pyrazolo[1,5-a]pyrimidine-3-carbonitrile]	–	33%	–
COc1cccc(CN2CCN(c3nn4c(-c5cccnc5)ccnc4c3C#N)CC2)c1.Cl [2-[4-[(3-Methoxyphenyl)methyl]-1-piperazinyl]-7-(3-pyridinyl)pyrazolo[1,5-a]pyrimidine-3-carbonitrile, monohydrochloride]	138 mm of mercury	18%	–
COc1cccc(CN2CCN(c3nn4c(-c5cccc(C(F)(F)F)c5)ccnc4c3C#N)CC2)c1 [2-[4-[(3-Methoxyphenyl)methyl]-1-piperazinyl]-7-[3-(trifluoromethyl)phenyl]pyrazolo[1,5-a]pyrimidine-3-carbonitrile]	140 mm of mercury	–	–
N#Cc1c(N2CCN(Cc3ccc(Cl)cc3)CC2)nn2c(-c3cccnc3)ccnc12 [2-[4-[(4-Chlorophenyl)methyl]-1-piperazinyl]-7-(3-pyridinyl)pyrazolo[1,5-a]pyrimidine-3-carbonitrile]	137 mm of mercury	–	–
N#Cc1c(N2CCN(Cc3ccc(Cl)cc3)CC2)nn2c(-c3cccc(C(F)(F)F)c3)ccnc12 [2-[4-[(4-Chlorophenyl)methyl]-1-piperazinyl]-7-[3-(trifluoromethyl)phenyl]pyrazolo[1,5-a]pyrimidine-3-carbonitrile]	127 mm of mercury	15%	–
COc1ccc(CN2CCN(c3nn4c(-c5cccc(C(F)(F)F)c5)ccnc4c3C#N)CC2)cc1 [2-[4-[(4-Methoxyphenyl)methyl]-1-piperazinyl]-7-[3-(trifluoromethyl)phenyl]pyrazolo[1,5-a]pyrimidine-3-carbonitrile]	136 mm of mercury	18%	–
Cc1cc(-c2ccncc2)n2nc(N3CCN(Cc4ccccc4)CC3)c(C#N)c2n1 [5-Methyl-2-[4-(phenylmethyl)-1-piperazinyl]-7-(4-pyridinyl)pyrazolo[1,5-a]pyrimidine-3-carbonitrile]	122 mm of mercury	–	–
N#Cc1c(N2CCN(Cc3ccccc3)CC2)nn2c(-c3cccc(Cl)c3)ccnc12 [7-(3-Chlorophenyl)-2-[4-(phenylmethyl)-1-piperazinyl]pyrazolo[1,5-a]pyrimidine-3-carbonitrile]	147 mm of mercury	–	% Survivors (Hypoxic Survival Test; 50 mg/kg i.p.): 47%
N#Cc1c(N2CCSCC2)nn2c(-c3cccnc3)ccnc12 [7-(3-Pyridinyl)-2-(4-thiomorpholinyl)pyrazolo[1,5-a]pyrimidine-3-carbonitrile]	141 mm of mercury	–	% Survivors (Hypoxic Survival Test; 100 mg/kg i.p.): 50%
N#Cc1c(N2CCN(c3ccccn3)CC2)nn2c(-c3cccnc3)ccnc12 [7-(3-Pyridinyl)-2-[4-(2-pyridinyl)-1-piperazinyl]pyrazolo[1,5-a]pyrimidine-3-carbonitrile]	143 mm of mercury	–	–
N#Cc1c(N2CCN(Cc3ccccc3)CC2)nn2c(-c3ccc(Cl)cc3)ccnc12 [7-(4-Chlorophenyl)-2-[4-(phenylmethyl)-1-piperazinyl]pyrazolo[1,5-a]pyrimidine-3-carbonitrile]	142 mm of mercury	–	–
CN(C)C=NC(=O)c1c(N2CCN(Cc3ccccc3)CC2)nn2c(-c3cccc(C(F)(F)F)c3)ccnc12 [N-[(Dimethylamino)methylene]-2-[4-(phenylmethyl)-1-piperazinyl]-7-[3-(trifluoromethyl)phenyl]pyrazolo-[1,5-a]pyrimidine-3-carboxamide]	103 mm of mercury	–	–
CNC(=O)Oc1ccc2c(c1)[C@]1(C)CCN(C)[C@@H]1N2C [physostigmine, reference compound]	–	–	physostigmine treated mice survive (Hypoxic Survival Test; 0.125 mg/kg i.p., 5 minute exposure): 60-80%
